Values quoted from earlier work in US20090238867A1, “Nanoparticulate Anidulafungin Compositions and Methods for Making the Same” (priority 2007, published 2009).
Where two headings read alike, the source gives them in different places. Numbered stars: 1 amine (or outer) side, 2 acyl side, 3 side chain; on linkers, the order of the positions; unused ones are H or OH. Bridge positions count the residues as written; N and C are the ends. Square brackets hold non-standard residues; d marks the D form. Peptide text beside a SMILES is read from it. * marks the point of attachment. ξ: configuration not given here. pTerphenylCO(4''-OnC5H11) = CCCCCOc1ccc(-c2ccc(-c3ccc(C(=O)*)cc3)cc2)cc1; Orn(4R-OH,5R-OH) = O=C([C@H](C[C@@H](O)[C@@H](O)N[*:3])N[*:1])[*:2]; hTyr(3S-OH,4S-OH) = N[C@H](C(=O)O)[C@H](O)[C@@H](O)c1ccc(O)cc1; Pro(3S-OH,4S-Me) = C[C@H]1CN[C@H](C(=O)O)[C@H]1O; Hyp = O=C(O)[C@@H]1C[C@@H](O)CN1; ξThr(3R) = C[C@@H](O)C(N)C(=O)O

Legend:
glucan synthase = conditions: enzyme present in fungal, not mammalian cells
Candida albicans [1] = test system: Candida albicans
Candida albicans [2] = conditions: parenteral; immunocompetent and immunosuppressed mice, disseminated infection
Candida albicans [3] = conditions: parenteral; immunocompetent and immunosuppressed rabbits, disseminated infection
[4] = test system: fluconazole-resistant C. albicans; conditions: immunosuppressed rabbits
[5] = IV
[6] = test system: cytochrome P450 (CYP450) isoenzymes

Q: With `CCCCCOc1ccc(-c2ccc(-c3ccc(C(=O)N[C@H]4C[C@@H](O)[C@@H](O)NC(=O)[C@@H]5[C@@H](O)[C@@H](C)CN5C(=O)[C@H]([C@@H](C)O)NC(=O)[C@H]([C@H](O)[C@@H](O)c5ccc(O)cc5)NC(=O)[C@@H]5C[C@@H](O)CN5C(=O)C([C@@H](C)O)NC4=O)cc3)cc2)cc1` (stereo partly drawn) [anidulafungin, 1-[(4R,5R)-4,5-Dihydroxy-N^2-[[4″-(pentyloxy)[1,1′:4′,1″-terphenyl]-4-yl]carbonyl]-L-ornithine]echinocandin B] ({pTerphenylCO(4''-OnC5H11)}-[Orn(4R-OH,5R-OH)][ξThr(3R)][Hyp][hTyr(3S-OH,4S-OH)]T[Pro(3S-OH,4S-Me)]; lactam 1-C) as the molecule, how does the solubility in ethanol (ethanol) read?
A: slightly soluble

Q: What about the solubility in water (water) of the same molecule?
A: practically insoluble

Q: And the “inhibition of glucan synthase” value (glucan synthase)?
A: inhibits

Q: What about the in vitro activity (Candida albicans [1]) of the same molecule?
A: active

Q: What about the in vitro activity (C. glabrata) of the same molecule?
A: active

Q: What about the in vitro activity (C. parapsilosis) of the same molecule?
A: active

Q: What about the in vitro activity (C. tropicalis) of the same molecule?
A: active

Q: And the “efficacy as prolonged survival and reduction in mycological burden” value (Candida albicans [2])?
A: effective

Q: And the “efficacy as prolonged survival and reduction in mycological burden” value (Candida albicans [3])?
A: effective

Q: What about the mycological burden [4] of the same molecule?
A: reduces the mycological burden

Q: And the clearance [5]?
A: about 1 L/h

Q: And the distribution half-life [5]?
A: 0.5 to 1 h

Q: What about the “intersubject variability of systemic exposure (coefficient of variation)” value [5] of the same molecule?
A: < 25%

Q: And the “systemic exposures, dose dependence” value [5]?
A: dose proportional

Q: What about the terminal elimination half-life [5] of the same molecule?
A: 40 to 50 h

Q: What about the volume of distribution [5] of the same molecule?
A: 30 to 50 L

Q: And the “estimated plasma accumulation factor at steady state” value ([5]; after loading dose twice the daily maintenance dose)?
A: approximately 2

Q: And the “bound to human plasma proteins” value (human plasma proteins)?
A: > 99%

Q: What about the “substrate, inducer or inhibitor of CYP450 isoenzymes” value [6] of the same molecule?
A: not a clinically relevant substrate, inducer, or inhibitor

Q: What about the clinical effectiveness (Candida; patients with candidemia and/or other forms of invasive candidiasis) of the same molecule?
A: effectiveness

Q: And the clinical effectiveness (Candida; patients with esophageal candidiasis)?
A: effectiveness
